Data published in patent US7985573B2, “Targeted drug-carrying bacteriophages” (priority 2005, dated 2011).

Experiments:
[1] = Solubilization of FITC by hygromycin; format: physicochemical
From the text: For conjugating a hydrophobic cargo, the drug, activated for amine conjugation (in the following experiments, NHS and isothiocynate chemistries were used) was initially reacted in an aqueous solution (NaHCO3 0.1 M pH=8.5) of an aminoglycoside at a concentration lower than the number of available amine groups (to leave one amine available for the subsequent conjugation to the carrier). The reaction was stirred gently for overnight at room temperature. Then the solution was titrated with HCl and Na-citrate buffer was added to final concentration of 0.1 M (pH=5.5). This solution was brought to a final molar concentration of 0.75 M NaCl and finally the carrier bacteriophages was added followed by immediate addition of EDC at concentration of ×100 molar excess over the target carboxyl side chains of the targeted drug carrier. This reaction was stirred gently for 1-2 hours at room temperature, followed by exhaustive dialysis against PBS/0.3 M NaCl. This process is illustrated in FIG. 13.
EDC mediated conjugation of aminoglycosides was first accomplished by using hygromycin as a model linker. hygromycin contains only two primary amines, one for drug conjugation and the other for conjugation to a carrier. Hygromycin was initially conjugated to FITC as described above.

susceptible bacteria = assay: Growth inhibition of susceptible bacteria by the chloramphenicol-prodrug; format: cell-based; details: concentrations up to ×100 of the free chloramphenicol IC50
serum esterases = assay: Chloramphenicol release from its linker in horse serum, reverse phase HPLC
Experimental: CAM release rate from its linker in 99% horse serum. (A) Reverse phase HPLC was used to measure the breakdown rate following the incubation for the indicated time periods in 99% horse serum at 37° C. Free chloramphenicol (marked by black arrows) is eluted 9 min after sample loading while intact chloramphenicol-linker adduct (marked by gray arrows) is eluted 16 min after sample loading. (B) release rate of chloramphenicol from its linker in 10% horse serum (gray bars) or without serum (in PBS, black bars) was evaluated by HPLC as in A, the % released chloramphenicol was calculated by dividing the area of the 9 min peak by the total peak area of all relevant peaks.
To test the CAM release rate, a reverse phase HPLC analysis was done based on the fact that elution time of free CAM is about 9 min while the CAM-linker adduct is eluted about 16 min after sample injection into a reverse phase C18 column. This was done as follows: reverse phase HPLC was used to measure the chloramphenicol release rate following the incubation of chloramphenicol-prodrug in 10% or in 99% horse serum, or without serum, all in PBS. […] The % of released chloramphenicol was calculated by dividing the area of the 9 min peak by the total peak area of all relevant peaks and multiplying by 100.

[2] = Stability of the CAM-linker adduct without serum (pH, PBS), HPLC; format: physicochemical
Experimental: To test the CAM release rate, a reverse phase HPLC analysis was done based on the fact that elution time of free CAM is about 9 min while the CAM-linker adduct is eluted about 16 min after sample injection into a reverse phase C18 column. This was done as follows: reverse phase HPLC was used to measure the chloramphenicol release rate following the incubation of chloramphenicol-prodrug in 10% or in 99% horse serum, or without serum, all in PBS. A reverse phase C-18 column was used on a LabChrom L7400 MERCK HITACHI machine with acetonitrile:water (30:70) in the mobile phase at 1 ml/min flow rate. Under these conditions, free chloramphenicol is eluted 9 min after sample loading while the intact chloramphenicol-prodrug is eluted 16 min after sample loading. The % of released chloramphenicol was calculated by dividing the area of the 9 min peak by the total peak area of all relevant peaks and multiplying by 100.

Staphylococcus aureus = assay: Growth of Staphylococcus aureus treated with drug-carrying peptide-displaying phages; format: cell-based; details: free drug at concentration equivalent to that released by the phages
From the text: FIG. 11. The effect of drug-carrying peptide-displaying phages on the growth of Staphylococcus aureus. (A) Growth curves of SA cells treated with SA-specific chloramphenicol prodrug-conjugated phage A12C (triangles), chloramphenicol prodrug-conjugated irrelevant phage F2b (circles), non conjugated SA-specific phage A12C as negative control (squares). (B) Growth curves of SA cells treated with SA-specific chloramphenicol prodrug-conjugated phage A12C (triangles) or various concentration of free chloramphenicol: 0.533 μg/ml (large filled circles), 1.0625 μg/ml (small open circles), 2.125 μg/ml (large open circles) or cells grown without any growth inhibitor (filled squares). Error bars represent the standard deviation of the data.
Phage A12C was chosen to assess the targeting effect of chloramphenicol-conjugated S. aureus-specific peptide-displaying phages. Conjugates were evaluated for their effect on bacterial growth as follows: an overnight bacterial culture was diluted ×100 in PBS. 1 ml of diluted bacteria was collected by centrifugation at 14,000 RPM and pellet re-suspended in 100 μl PBS. 10 μl of this bacterial suspension was mixed with 100 μl of 10^12 phages in ml PBS, and then incubated for 1 hr. […] Growth was recorded after dilution into the TSB medium by recording the optical density (OD) at 600 nm.

## O=C1OC2(c3ccc(O)cc3Oc3cc(O)ccc32)c2ccc(N=C=S)cc21 [FITC]
[1]; FITC stock solution (38.9 mg/ml in DMSO) added to equal volume of buffer without aminoglycosides
  solubility in aqueous buffer: immediate formation of precipitate
[1]; conjugated to hygromycin, molar ratio 10 hygromycin:1 FITC
  solubility in aqueous buffer: immediate solubilization

## O=C(CCCC(=O)ON1C(=O)CCC1=O)OC[C@@H](NC(=O)C(Cl)Cl)[C@H](O)c1ccc([N+](=O)[O-])cc1 [chloramphenicol-prodrug]
Susceptible bacteria
  inhibition of the growth of susceptible bacteria: did not inhibit the growth
Serum esterases; 10% horse serum, monitored over 48 hours, compared with 99% serum after correcting for concentration
  release rate kinetics: same linear kinetics
Serum esterases; 1 hr incubation in 99% horse serum at 37° C., linear kinetics
  CAM released from the linker: about 15%
[2]; PBS alone, entire 48 h period
  spontaneous hydrolysis rate of the ester bond: less than 5%
[2]; pH values between 6-8
  stability of CAM-linker adduct: stable

## O=C(N[C@H](CO)[C@H](O)c1ccc([N+](=O)[O-])cc1)C(Cl)Cl [chloramphenicol]
Staphylococcus aureus
  growth of the SA bacteria (OD 600 nm): did not retard
